According to ChEMBL document CHEMBL3217664, “Synthesis and biological evaluation of 4-chlorocolchicine derivatives as potent anticancer agents with broad effective dosage ranges” (Medchemcomm, 2012):

Experiments:
[1] = tested on: HCT-116; experiment: Antitumor activity against human HCT116 cells xenografted in BALB/c mouse assessed as tumor growth inhibition at 50 mg/kg/day, iv administered on day 1, 5 and 9 relative to control; type: functional; conditions: HCT-116, 24 h, read-out: TGI
[2] = tested on: HCT-116; experiment: Antitumor activity against human HCT116 cells xenografted in BALB/c mouse assessed as tumor growth inhibition at 100 mg/kg/day, iv administered on day 1, 5 and 9 relative to control; type: functional; conditions: HCT-116, 24 h, read-out: TGI
[3] = tested on: Mus musculus; experiment: Toxicity in BALB/c mouse assessed as mortality at 50 mg/kg/day, iv administered on day 1, 5 and 9; type: organism-based; set-up: route intravenous; conditions: in vivo
[4] = tested on: Mus musculus; experiment: Toxicity in BALB/c mouse assessed as mortality at 100 mg/kg/day, iv administered on day 1, 5 and 9; type: organism-based; set-up: route intravenous; conditions: in vivo
[5] = tested on: A549; experiment: Cytotoxicity against human A549 cells after 96 hrs by microplate reader analysis; type: functional, cell-based; conditions: A549, 96 h
[6] = tested on: HT-29; experiment: Cytotoxicity against human HT-29 cells after 96 hrs by microplate reader analysis; type: functional, cell-based; conditions: HT-29, 96 h
[7] = tested on: HCT-116; experiment: Cytotoxicity against human HCT116 cells after 96 hrs by microplate reader analysis; type: functional, cell-based; conditions: HCT-116, 96 h
[8] = tested on: Liver; experiment: Metabolic stability in BALB/c mouse liver microsomes at 1 umol/l by LC-MS/MS analysis; type: ADME; conditions: 1 µM
[9] = tested on: HCT-116; experiment: Antitumor activity against human HCT116 cells xenografted in BALB/c mouse assessed as tumor growth inhibition at 20 mg/kg/day, iv administered on day 1, 5 and 9 relative to control; type: functional; conditions: HCT-116, 24 h, read-out: TGI
[10] = tested on: HCT-116; experiment: Antitumor activity against human HCT116 cells xenografted in BALB/c mouse assessed as tumor growth inhibition at 40 mg/kg/day, iv administered on day 1, 5 and 9 relative to control; type: functional; conditions: HCT-116, 24 h, read-out: TGI
[11] = tested on: Mus musculus; experiment: Toxicity in BALB/c mouse assessed as mortality at 20 mg/kg/day, iv administered on day 1, 5 and 9; type: organism-based; set-up: route intravenous; conditions: in vivo
[12] = tested on: Mus musculus; experiment: Toxicity in BALB/c mouse assessed as mortality at 40 mg/kg/day, iv administered on day 1, 5 and 9; type: organism-based; set-up: route intravenous; conditions: in vivo
[13] = tested on: HCT-116; experiment: Antitumor activity against human HCT116 cells xenografted in BALB/c mouse assessed as tumor growth inhibition at 5 mg/kg/day, iv administered on day 1, 5 and 9 relative to control; type: functional; conditions: HCT-116, 24 h, read-out: TGI
[14] = tested on: HCT-116; experiment: Antitumor activity against human HCT116 cells xenografted in BALB/c mouse assessed as tumor growth inhibition at 2.5 mg/kg/day, iv administered on day 1, 5 and 9 relative to control; type: functional; conditions: HCT-116, 24 h, read-out: TGI
[15] = tested on: Mus musculus; experiment: Toxicity in BALB/c mouse assessed as mortality at 5 mg/kg/day, iv administered on day 1, 5 and 9; type: organism-based; set-up: route intravenous; conditions: in vivo
[16] = tested on: Mus musculus; experiment: Toxicity in BALB/c mouse assessed as mortality at 2.5 mg/kg/day, iv administered on day 1, 5 and 9; type: organism-based; set-up: route intravenous; conditions: in vivo

## COc1c(Cl)c2c(c(OC)c1OC)-c1ccc(OC)c(=O)cc1[C@@H](NC(=O)C(C)(C)O)CC2
[1]
  inhibition in vivo at 50 mg/kg/day: 58.5%
[2]
  inhibition in vivo at 100 mg/kg/day: 67.3%
[3]
  Activity: Non-toxic
[4]
  Activity: Non-toxic
[5]
  IC50: 19.4 nM
[6]
  IC50: 7.8 nM
[7]
  IC50: 8.1 nM
[8]
  Stability: 5 µL/min/mg

## COc1c(Cl)c2c(c(OC)c1OC)-c1ccc(OC)c(=O)cc1[C@@H](NC(=O)CO)CC2
[9]
  inhibition in vivo at 20 mg/kg/day: 43.6%
[10]
  inhibition in vivo at 40 mg/kg/day: 66.7%
[11]
  Activity: Non-toxic
[12]
  Activity: Non-toxic
[5]
  IC50: 16.3 nM
[6]
  IC50: 8 nM
[7]
  IC50: 8.2 nM
[8]
  Stability: 1 µL/min/mg

## COc1c(Cl)c2c(c(OC)c1OC)-c1ccc(OC)c(=O)cc1[C@@H](NC(=O)c1cccc(N(C)C)c1)CC2
[13]
  inhibition in vivo at 5 mg/kg/day: 25.3%
[14]
  inhibition in vivo at 2.5 mg/kg/day: 31.4%
[15]
  Activity: Non-toxic
[16]
  Activity: Non-toxic
[5]
  IC50: 6.4 nM
[6]
  IC50: 1.4 nM
[7]
  IC50: 1.6 nM
[8]
  Stability: 122 µL/min/mg
